The test system of one experiment is HDAC. The experiment in a line: Cellular HDAC enzyme activity in patients' whole blood (Boc-K(Ac)-AMC), inhibition vs pre-dose. In kind it is in vivo, human. Conditions: SAPHIRE. The protocol:
Samples were obtained and gene expressions were determined with the methods as described herein below. Whole blood was incubated for 2 h at 37° C. with fluorescent HDAC substrate Boc-K(Ac)-AMC. After the lysis of erythrocytes remaining cells were stored at −80° C. HDAC activity was determined by fluorimetric analysis using a FLUOstar OPTIMA plate reader, where cells were incubated with a defined developer reagent (containing trypsin and lysis buffer) which leads to cell lysis and generation of a fluorophore from the deacetylated substrate. Finally inhibition of HDAC activity compared to pre-dose levels was calculated.
• Labelled 15 ml tubes (e.g. PP tubes, e.g. Falcon® tubes) • Labelled 2 ml tubes (e.g. PP tubes) • Erythrocyte Lysis buffer (Qiagen 79217) (stored at RT until use) • 40 mM Boc-K(Ac) AMC Stock in DMSO (Bachem: 1-1875) (stored at −80° C. until use)
• 1) Add 1 ml citrate blood into a 15 ml labelled tube. • 2) Add 5 μl 40 mM Boc-K(Ac) AMC to 1 ml citrate blood (final concentration: 200 μM Boc-K(Ac) AMC). • 3) Incubate for 2 h in an incubator (37° C.). • 4) Add 5 fold volume (5 ml) of 4° C. cold erythrocyte lysis buffer (EL buffer, Qiagen 79217). • 5) Mix briefly on a shaker. • 6) Incubate on ice for at least 15 min; mix two times in between on a plate shaker. • 7) Add 7 ml of 4° C. […]

The next experiment concerns Histone H3. The experiment in a line: Nuclear protein extraction and Western blot, HepG2 cells (nuclear loading control). The class given is cell-based, human. Conditions: 5 μM, 24 h, vs 0.1% DMSO. The method, then:
After isolating nuclear fractions, ZFP64 protein levels were detected by Western Blot analysis. Histone H3 serves as nuclear loading control.
4 h upon seeding, HepG2 cells were treated with either 0.1% DMSO or 5 μM resminostat.
24 h upon resminostat treatment, cells were washed once with PBS before scraping and harvesting in cold PBS and transferring the cells into pre-chilled 15 ml falcon tubes. […]
From each nuclear sample 4.4 μg protein (measured via BCA protein assay) were added to the same amount of Tricine buffer (supplemented with B-Mercaptoethanol), heated at 95° C. for 5 min and then placed on ice. […]
The next day, after washing four times with Washing Buffer, membranes were incubated for 1 h with the corresponding horseradish peroxidase-conjugated anti-rabbit IgG secondary antibody at a dilution of 1/50.000 and anti-Biotin at a dilution of 1/1.000 (diluted in 10 ml 1/10 diluted SuperBlock T20 Blocking Buffer). After washing four times with Washing Buffer, HRP signals were detected using enhanced chemoluminescence and exposed to X-ray films. Subsequently, the films were scanned using the Gel Doc 2000 and the corresponding signals were quantified with the “Quantity One” Software (BioRad).

The structures appear in SMILES notation.

In the case of `CN(C)Cc1ccc(S(=O)(=O)n2ccc(/C=C/C(=O)NO)c2)cc1` [resminostat, (E)-3-(1-(4-((dimethylamino)methyl)phenylsulfonyl)-1H-pyrrol-3-yl)-N-hydroxyacrylamide], the “Inhibition of HDAC enzyme activity (median)” value in the experiment with HDAC (2 h post-dose, both dose groups (600 mg, 800 mg), vs pre-dose) was no more than 93%. Moreover, the “Inhibition of HDAC enzyme activity” value in the experiment with HDAC (day 8, 800 mg dose group, wide range of individual values) is “up to 41%”. The “Histone H3 levels (nuclear loading control)” value in the experiment on Histone H3 is on record as “essentially unaltered”.
